Data as given in ChEMBL document CHEMBL1201862, “PubChem BioAssay data set” (2004).
Calls of active or inactive are those of the source.

Tests used:
[1] = target: Phospholipase A2 (Homo sapiens, UniProt P04054); format: functional;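 further: confirmatory dose-response counterscreen on phospholipase A2, testing hits that came from an ultra-high-throughput screen for ATG4B inhibitors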
[2] = target: T1, Cysteine protease ATG4B (Homo sapiens, UniProt Q9Y4P1); format: functional;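 further: Fluorescence-based dose-response confirmation assay measuring inhibition of ATG4B activity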
T1 sequence (Q9Y4P1 whole entry): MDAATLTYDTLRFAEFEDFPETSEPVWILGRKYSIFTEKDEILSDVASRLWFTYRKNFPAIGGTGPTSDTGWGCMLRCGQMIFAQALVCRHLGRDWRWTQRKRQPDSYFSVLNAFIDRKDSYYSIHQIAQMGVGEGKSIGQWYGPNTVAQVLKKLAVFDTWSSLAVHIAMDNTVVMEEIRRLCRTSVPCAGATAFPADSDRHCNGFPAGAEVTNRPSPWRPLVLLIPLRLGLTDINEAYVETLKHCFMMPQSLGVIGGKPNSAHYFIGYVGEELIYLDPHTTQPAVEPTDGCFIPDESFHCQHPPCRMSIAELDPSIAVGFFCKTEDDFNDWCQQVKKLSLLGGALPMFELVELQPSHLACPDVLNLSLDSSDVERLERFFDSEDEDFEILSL

[3] = target: T2, Caspase-6 (Homo sapiens, UniProt P55212); experiment: inhibition of CASP6 peptide cleavage – biochemical, VEID-R110 fluorescence, cherry-pick, dose response (AID 720632)
T2 sequence (P55212 whole entry): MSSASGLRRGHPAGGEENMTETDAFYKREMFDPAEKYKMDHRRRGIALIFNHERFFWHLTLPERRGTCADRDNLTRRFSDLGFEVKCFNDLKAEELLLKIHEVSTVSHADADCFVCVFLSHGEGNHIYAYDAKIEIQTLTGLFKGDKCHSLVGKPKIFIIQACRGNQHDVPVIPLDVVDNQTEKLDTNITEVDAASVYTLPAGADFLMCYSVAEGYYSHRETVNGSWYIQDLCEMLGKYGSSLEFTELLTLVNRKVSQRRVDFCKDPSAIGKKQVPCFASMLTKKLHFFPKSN

[4] = target: T3, SUMO-activating enzyme (Homo sapiens, UniProt Q9UBT2); experiment: blockers of SAE1/SAE2–UBC9 SUMO transfer – biochemical, HTRF, uHTS, primary screen (AID 2006); format: protein-complex assay
[5] = target: T3, SUMO-activating enzyme; experiment: blockers of UBC9-mediated SUMO conjugation – biochemical, AlphaScreen, SUMOylation inhibitor project, confirmation (AID 2018); format: functional
[6] = target: Induced myeloid leukemia cell differentiation protein Mcl-1 (Homo sapiens, UniProt Q07820); format: functional
[7] = target: DNA (cytosine-5)-methyltransferase 1 (Homo sapiens, UniProt P26358); experiment: inhibition of DNA methylation by DNMT1 – biochemical, fluorescent molecular beacon, confirmation (AID 602386); format: functional
[8] = target: Beta-2 adrenergic receptor (Homo sapiens, UniProt P07550); experiment: ADRB2 activation measured by internalization – cell-based, FAP fluorogen, flow cytometry, cherry pick 1, dose response (AID 588763); format: functional
[9] = target: FAD-linked sulfhydryl oxidase ALR (Homo sapiens, UniProt P55789); experiment: ALR-catalysed DTT oxidation blockers – biochemical, H2O2 detection, luminescence, cherry-pick, dose response (AID 493248)
[10] = target: T4, Sentrin-specific protease 7 (Homo sapiens, UniProt Q9BQF6); format: functional;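 further: Luminescence-based dose-response confirmation of ultra-high-throughput screening hits, measuring inhibition of SENP7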
T4 sequence (Q9BQF6 whole entry): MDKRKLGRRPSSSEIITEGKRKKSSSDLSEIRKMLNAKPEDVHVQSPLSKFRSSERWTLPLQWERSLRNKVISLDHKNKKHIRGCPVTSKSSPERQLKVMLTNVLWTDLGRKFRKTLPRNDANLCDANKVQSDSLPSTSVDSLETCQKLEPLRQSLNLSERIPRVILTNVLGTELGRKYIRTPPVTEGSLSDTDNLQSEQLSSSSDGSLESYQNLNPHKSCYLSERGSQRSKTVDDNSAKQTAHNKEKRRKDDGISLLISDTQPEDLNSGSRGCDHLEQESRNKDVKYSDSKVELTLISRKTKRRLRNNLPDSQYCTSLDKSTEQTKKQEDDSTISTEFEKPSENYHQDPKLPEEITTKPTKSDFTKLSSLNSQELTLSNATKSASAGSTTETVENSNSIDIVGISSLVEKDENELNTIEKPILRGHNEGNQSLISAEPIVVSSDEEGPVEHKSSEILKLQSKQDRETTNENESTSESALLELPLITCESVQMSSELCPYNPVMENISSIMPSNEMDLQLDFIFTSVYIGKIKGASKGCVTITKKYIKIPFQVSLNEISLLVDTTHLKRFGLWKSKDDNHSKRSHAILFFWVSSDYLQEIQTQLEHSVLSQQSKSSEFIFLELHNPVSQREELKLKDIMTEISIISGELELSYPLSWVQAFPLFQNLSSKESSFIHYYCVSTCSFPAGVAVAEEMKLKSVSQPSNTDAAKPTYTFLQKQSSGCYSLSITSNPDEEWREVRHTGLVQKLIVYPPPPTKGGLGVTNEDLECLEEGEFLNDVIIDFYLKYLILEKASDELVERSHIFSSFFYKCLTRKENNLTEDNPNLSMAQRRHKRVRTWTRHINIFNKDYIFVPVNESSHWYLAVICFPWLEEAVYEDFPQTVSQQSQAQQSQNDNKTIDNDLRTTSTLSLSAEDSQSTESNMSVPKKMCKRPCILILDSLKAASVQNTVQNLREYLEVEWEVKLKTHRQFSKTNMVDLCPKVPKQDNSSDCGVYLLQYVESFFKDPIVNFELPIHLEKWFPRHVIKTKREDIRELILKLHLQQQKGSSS

[11] = target: T5, Caspase-3 (Homo sapiens, UniProt P42574); format: functional;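 further: Dose-response selectivity test against caspase-3 for candidate inhibitors of sentrin-specific proteases (SENPs)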
T5 sequence (P42574 whole entry): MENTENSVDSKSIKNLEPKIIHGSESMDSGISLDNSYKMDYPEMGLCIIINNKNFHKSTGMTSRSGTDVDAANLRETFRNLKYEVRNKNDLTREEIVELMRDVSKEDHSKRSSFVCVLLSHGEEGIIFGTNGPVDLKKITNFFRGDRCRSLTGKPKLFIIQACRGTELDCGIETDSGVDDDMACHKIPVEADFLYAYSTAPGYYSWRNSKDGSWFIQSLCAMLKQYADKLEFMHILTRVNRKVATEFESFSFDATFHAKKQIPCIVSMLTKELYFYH

[12] = NIH-3T3 fibroblast cytotoxicity, dose response, cytotoxicity control, cell-based, fluorescence, Alamar Blue, secondary assay (AID 2327); format: functional;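 further: NIH-3T3 mouse fibroblasts cultured with fluconazole at 8 µg/mL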
[13] = target: T6, Sentrin-specific protease 8 (Homo sapiens, UniProt Q96LD8); format: functional;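 further: luminescence read-out of SENP8 inhibition, dose-response confirmation following an ultra-high-throughput screen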
T6 sequence (Q96LD8 whole entry): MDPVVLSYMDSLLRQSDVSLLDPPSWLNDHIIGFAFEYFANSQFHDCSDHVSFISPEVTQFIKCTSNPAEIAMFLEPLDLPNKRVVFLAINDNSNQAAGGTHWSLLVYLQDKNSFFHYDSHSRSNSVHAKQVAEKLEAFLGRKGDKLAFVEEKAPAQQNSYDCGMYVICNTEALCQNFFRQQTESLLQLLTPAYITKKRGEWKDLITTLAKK

[14] = target: T7, Sentrin-specific protease 6 (Homo sapiens, UniProt Q9GZR1); format: functional;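 further: Luminescence-based dose-response confirmatory assay of SENP6 inhibition, following up an ultra-high-throughput screen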
T7 sequence (Q9GZR1 whole entry): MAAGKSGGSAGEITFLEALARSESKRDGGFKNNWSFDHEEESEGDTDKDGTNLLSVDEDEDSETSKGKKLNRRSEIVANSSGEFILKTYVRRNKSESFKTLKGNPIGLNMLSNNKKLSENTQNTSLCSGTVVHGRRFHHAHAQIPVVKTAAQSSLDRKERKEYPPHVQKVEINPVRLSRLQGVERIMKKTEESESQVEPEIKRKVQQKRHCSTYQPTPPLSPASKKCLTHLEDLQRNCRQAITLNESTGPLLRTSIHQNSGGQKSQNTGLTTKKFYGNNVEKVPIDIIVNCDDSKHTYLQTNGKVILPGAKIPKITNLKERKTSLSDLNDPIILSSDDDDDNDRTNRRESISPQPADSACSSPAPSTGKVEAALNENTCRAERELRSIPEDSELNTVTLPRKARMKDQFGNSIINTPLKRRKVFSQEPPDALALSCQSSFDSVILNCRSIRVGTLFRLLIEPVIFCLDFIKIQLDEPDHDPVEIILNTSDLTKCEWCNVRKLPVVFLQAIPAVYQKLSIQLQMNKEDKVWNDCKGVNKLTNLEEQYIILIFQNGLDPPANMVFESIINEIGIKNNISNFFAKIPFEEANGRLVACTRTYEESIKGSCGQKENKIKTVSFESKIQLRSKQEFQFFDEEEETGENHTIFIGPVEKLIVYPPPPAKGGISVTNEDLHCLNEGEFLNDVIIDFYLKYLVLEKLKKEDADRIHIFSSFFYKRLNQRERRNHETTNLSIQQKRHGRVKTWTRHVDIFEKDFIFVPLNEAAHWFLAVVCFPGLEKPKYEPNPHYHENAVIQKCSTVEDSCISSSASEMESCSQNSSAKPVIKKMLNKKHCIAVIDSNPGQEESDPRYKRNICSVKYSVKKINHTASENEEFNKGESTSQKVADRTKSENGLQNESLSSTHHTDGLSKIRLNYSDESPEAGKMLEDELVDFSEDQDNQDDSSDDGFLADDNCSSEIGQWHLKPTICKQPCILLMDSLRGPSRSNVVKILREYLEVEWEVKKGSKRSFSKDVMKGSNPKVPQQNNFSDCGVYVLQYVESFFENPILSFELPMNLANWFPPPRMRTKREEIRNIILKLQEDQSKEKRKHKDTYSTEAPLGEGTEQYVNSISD

[15] = system: HeLa; experiment: ATP-based viability loss in HeLa cells – cell-based, CellTiter-Glo luminescence, cherry-pick samples, cytotoxicity control for MITF activator project, dose response (AID 540259); format: functional; settings: Homo sapiens
[16] = fluconazole-exposed Candida albicans growth modulators – fluorescence, retest, confirmation (AID 2467); format: functional, cell-based
[17] = viability of uninfected HEp-2 cells – cell-based, HTS, cytotoxicity control for RSV inhibitor project, dose response (AID 2410); format: functional; settings: human respiratory syncytial virus

T3 sequence (Q9UBE0 whole entry): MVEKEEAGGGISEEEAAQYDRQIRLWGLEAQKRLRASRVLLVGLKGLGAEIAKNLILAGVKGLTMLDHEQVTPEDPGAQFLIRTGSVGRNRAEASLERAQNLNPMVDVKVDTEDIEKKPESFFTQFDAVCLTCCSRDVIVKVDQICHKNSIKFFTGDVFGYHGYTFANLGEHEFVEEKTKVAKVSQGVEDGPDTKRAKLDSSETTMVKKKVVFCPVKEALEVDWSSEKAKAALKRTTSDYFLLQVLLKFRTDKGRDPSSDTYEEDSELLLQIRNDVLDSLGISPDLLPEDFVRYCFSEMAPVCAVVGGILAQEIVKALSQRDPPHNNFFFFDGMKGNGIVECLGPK
T3 sequence (Q9UBT2 whole entry): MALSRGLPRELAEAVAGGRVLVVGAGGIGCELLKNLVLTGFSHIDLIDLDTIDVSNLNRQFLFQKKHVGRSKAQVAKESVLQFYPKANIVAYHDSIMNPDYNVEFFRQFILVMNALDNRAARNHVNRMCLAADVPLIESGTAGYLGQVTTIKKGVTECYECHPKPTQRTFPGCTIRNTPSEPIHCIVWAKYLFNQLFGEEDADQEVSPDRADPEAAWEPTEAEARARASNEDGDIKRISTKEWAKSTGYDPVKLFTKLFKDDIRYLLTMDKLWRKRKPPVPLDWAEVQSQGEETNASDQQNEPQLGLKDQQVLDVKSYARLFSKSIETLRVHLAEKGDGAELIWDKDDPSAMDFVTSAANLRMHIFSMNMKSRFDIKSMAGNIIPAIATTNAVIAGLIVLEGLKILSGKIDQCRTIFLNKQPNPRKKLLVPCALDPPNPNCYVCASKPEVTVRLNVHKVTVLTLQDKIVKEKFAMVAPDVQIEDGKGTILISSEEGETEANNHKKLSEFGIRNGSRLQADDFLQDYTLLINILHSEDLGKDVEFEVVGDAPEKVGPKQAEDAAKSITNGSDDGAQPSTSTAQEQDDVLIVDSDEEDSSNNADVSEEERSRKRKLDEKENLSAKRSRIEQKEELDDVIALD
Phospholipase A2, sequence (P04054 whole entry): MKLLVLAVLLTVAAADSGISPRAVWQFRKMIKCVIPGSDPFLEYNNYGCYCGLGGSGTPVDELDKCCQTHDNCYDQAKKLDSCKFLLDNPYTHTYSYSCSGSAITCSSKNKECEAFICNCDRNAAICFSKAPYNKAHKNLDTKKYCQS
Induced myeloid leukemia cell differentiation protein Mcl-1, sequence (Q07820 whole entry): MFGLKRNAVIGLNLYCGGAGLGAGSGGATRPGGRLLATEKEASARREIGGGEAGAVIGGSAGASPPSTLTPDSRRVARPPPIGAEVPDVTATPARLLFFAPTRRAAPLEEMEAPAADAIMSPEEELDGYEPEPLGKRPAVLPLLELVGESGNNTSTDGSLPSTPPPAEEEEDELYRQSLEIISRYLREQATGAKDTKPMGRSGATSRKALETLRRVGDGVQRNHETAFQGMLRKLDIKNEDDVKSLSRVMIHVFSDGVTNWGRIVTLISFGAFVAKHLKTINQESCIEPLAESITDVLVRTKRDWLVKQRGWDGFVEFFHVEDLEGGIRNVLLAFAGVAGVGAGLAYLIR
Beta-2 adrenergic receptor, sequence (P07550 whole entry): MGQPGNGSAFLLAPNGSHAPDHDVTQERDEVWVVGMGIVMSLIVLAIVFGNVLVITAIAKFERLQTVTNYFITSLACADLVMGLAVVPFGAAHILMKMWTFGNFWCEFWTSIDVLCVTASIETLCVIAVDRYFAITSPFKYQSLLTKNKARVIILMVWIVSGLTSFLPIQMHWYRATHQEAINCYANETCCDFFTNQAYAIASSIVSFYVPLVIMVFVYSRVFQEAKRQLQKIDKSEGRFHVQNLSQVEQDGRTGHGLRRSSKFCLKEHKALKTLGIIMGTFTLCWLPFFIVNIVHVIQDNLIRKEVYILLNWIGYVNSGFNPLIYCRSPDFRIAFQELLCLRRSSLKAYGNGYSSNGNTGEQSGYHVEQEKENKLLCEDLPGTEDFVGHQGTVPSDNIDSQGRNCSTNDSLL
FAD-linked sulfhydryl oxidase ALR, sequence (P55789 whole entry): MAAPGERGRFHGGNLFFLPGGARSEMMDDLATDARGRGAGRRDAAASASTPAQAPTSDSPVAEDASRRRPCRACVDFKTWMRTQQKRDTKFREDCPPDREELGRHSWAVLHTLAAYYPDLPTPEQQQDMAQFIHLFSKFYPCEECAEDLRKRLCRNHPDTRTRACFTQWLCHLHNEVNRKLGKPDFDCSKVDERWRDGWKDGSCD
DNA (cytosine-5)-methyltransferase 1, sequence (P26358 whole entry): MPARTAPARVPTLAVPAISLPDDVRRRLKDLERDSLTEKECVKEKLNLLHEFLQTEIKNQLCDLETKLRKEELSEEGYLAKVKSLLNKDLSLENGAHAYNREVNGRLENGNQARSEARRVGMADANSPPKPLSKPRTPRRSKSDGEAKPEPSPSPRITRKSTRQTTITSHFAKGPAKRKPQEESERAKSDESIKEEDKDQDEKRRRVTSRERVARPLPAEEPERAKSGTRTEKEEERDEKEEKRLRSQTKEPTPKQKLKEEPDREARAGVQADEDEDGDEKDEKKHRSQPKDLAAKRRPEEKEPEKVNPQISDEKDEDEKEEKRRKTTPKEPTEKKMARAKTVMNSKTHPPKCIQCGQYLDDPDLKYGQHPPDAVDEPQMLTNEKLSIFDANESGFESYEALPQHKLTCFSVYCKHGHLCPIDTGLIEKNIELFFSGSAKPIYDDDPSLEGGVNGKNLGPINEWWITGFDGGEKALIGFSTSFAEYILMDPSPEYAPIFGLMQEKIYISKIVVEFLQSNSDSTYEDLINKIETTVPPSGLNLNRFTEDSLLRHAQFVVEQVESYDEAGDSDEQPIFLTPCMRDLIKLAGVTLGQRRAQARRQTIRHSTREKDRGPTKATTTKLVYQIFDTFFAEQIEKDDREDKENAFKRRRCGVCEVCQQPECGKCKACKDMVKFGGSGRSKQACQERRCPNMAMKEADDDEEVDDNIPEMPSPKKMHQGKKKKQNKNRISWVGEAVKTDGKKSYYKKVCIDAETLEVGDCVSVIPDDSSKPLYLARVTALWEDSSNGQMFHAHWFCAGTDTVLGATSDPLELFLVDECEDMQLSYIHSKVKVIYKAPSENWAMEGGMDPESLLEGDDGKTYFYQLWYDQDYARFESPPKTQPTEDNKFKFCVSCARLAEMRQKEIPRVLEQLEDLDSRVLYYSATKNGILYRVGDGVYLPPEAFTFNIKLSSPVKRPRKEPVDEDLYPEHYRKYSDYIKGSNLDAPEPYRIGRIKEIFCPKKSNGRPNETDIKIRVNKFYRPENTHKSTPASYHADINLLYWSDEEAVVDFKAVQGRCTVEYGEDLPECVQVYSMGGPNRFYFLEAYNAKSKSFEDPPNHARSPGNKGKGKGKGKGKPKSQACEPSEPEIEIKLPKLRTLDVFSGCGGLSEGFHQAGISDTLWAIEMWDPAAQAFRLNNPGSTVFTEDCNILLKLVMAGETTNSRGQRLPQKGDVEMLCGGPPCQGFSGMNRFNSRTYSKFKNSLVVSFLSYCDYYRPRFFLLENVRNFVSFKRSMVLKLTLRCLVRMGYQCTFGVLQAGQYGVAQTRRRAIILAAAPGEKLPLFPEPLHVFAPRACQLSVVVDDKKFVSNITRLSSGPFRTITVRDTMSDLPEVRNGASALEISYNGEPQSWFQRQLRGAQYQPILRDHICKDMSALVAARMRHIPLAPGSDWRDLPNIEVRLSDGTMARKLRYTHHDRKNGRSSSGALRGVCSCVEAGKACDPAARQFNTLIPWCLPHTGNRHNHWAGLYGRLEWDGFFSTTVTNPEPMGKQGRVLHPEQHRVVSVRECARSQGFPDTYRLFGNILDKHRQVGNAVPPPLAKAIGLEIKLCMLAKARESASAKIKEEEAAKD

Cc1nc2c(C(=O)NCc3ccccc3Cl)cnn2c(O)c1Cl
active: IC50 [1] 12.6 µM | IC50 [2] 11 µM

CN(c1ccccc1)c1ccc(/C=C(\CCC(=O)O)c2nc3ccccc3s2)cc1[N+](=O)[O-]
active: AC50 [3] 24.2 µM | IC50 [4] 16.8 µM | IC50 [5] 1.65 µM | IC50 [6] 2.27 µM | IC50 [7] 5.34 µM | IC50 [1] 5.31 µM | IC50 [2] 4.31 µM

Cc1ccc(CS(=O)(=O)c2nc3c(c(N(C)C)n2)CCCC3)cc1
active: EC50 [8] 0.0813 µM

CC(=O)Nc1cccc(-c2csc(Nc3ccc(C)cn3)n2)c1
active: AC50 [9] 0.169 µM | IC50 [10] 4.13 µM | IC50 [11] 39.7 µM | EC50 [12] 25.8 µM | IC50 [13] 17.5 µM | IC50 [14] 12.7 µM | AC50 [15] 40 µM | EC50 [16] 4.04 µM | CC50 [17] > 50 µM
